US20260226493A1, “HERBICIDE RESISTANT PLANTS” (SYNGENTA CROP PROTECTION AG, priority 2023, published 2026)

Test system: Arabidopsis thaliana BIO3-BIO1 (BioDA) mutants
Test: BIO3-BIO1 mutant enzyme activity in the presence of herbicide, percentage inhibition (fluorometric DAPA assay)
Type: biochemical
Outline: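 Percentage inhibition compares activity at one of three herbicide concentrations against DMSO, from o-phthalaldehyde-derivatised DAPA fluorescence (ex 410, em 470 nm). Purified N-His BIO3-BIO1 variants (50 nM, E. coli-expressed) saw herbicide 10 min at 20 °C in pH 8.6 EPPS buffer, then 20 μM KAPA plus 100 μM spermidine for 75 min at 20 °C.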

SMILES: CCn1c(Cn2ccc(C(F)(F)F)n2)cc(=O)c(C(=O)O)c1-c1ccc(Cl)c(Cl)c1 [Compound L, 2-(3,4-dichlorophenyl)-1-ethyl-4-oxo-6-[[3-(trifluoromethyl)pyrazol-1-yl]methyl]pyridine-3-carboxylic acid]
- percentage inhibition (variant Q517F, 0.01 μM): 0%
- percentage inhibition (variant Q517F, 0.075 μM): 17%
- percentage inhibition (variant Q517F, 0.5 μM): 54%
- percentage inhibition (variant Q517H, 0.01 μM): 0%
- percentage inhibition (variant T393V, 0.01 μM): 9%
- percentage inhibition (variant T393V, 0.075 μM): 19%
- percentage inhibition (variant T393V, 0.5 μM): 65%
- percentage inhibition (variant T512C, 0.01 μM): 0%
- percentage inhibition (variant T512C, 0.075 μM): 18%
- percentage inhibition (variant T512C, 0.5 μM): 69%
- percentage inhibition (variant T512D, 0.01 μM): 24%
- percentage inhibition (variant T512D, 0.075 μM): 23%
- percentage inhibition (variant T512D, 0.5 μM): 58%
- percentage inhibition (variant T512G, 0.01 μM): 0%
- percentage inhibition (variant T512G, 0.075 μM): 0%
- percentage inhibition (variant T512G, 0.5 μM): 20%
- percentage inhibition (variant T512I, 0.01 μM): 2%
- percentage inhibition (variant T512I, 0.075 μM): 15%
- percentage inhibition (variant T512I, 0.5 μM): 29%
- percentage inhibition (variant T512N, 0.01 μM): 15%
- percentage inhibition (variant T512N, 0.075 μM): 37%
- percentage inhibition (variant T512N, 0.5 μM): 76%
- percentage inhibition (variant T512Q, 0.01 μM): 3%
- percentage inhibition (variant T512Q, 0.075 μM): 35%
- percentage inhibition (variant T512Q, 0.5 μM): 74%
- percentage inhibition (variant T512R, 0.01 μM): 27%
- percentage inhibition (variant T512R, 0.075 μM): 61%
- percentage inhibition (variant T512R, 0.5 μM): 91%
- percentage inhibition (variant T512V, 0.01 μM): 33%
- percentage inhibition (variant T512V, 0.075 μM): 57%
- percentage inhibition (variant T512V, 0.5 μM): 83%
- percentage inhibition (variant T512W, 0.01 μM): 18%
- percentage inhibition (variant T512W, 0.075 μM): 0%
- percentage inhibition (variant T512W, 0.5 μM): 31%
- percentage inhibition (variant V354A, 0.01 μM): 6%
- percentage inhibition (variant V354A, 0.075 μM): 0%
- percentage inhibition (variant V354A, 0.5 μM): 47%
- percentage inhibition (variant V354E, 0.01 μM): 4%
- percentage inhibition (variant V354E, 0.075 μM): 19%
- percentage inhibition (variant V354E, 0.5 μM): 35%
- percentage inhibition (variant V354L, 0.01 μM): 0%
- percentage inhibition (variant V354L, 0.075 μM): 16%
- percentage inhibition (variant V354L, 0.5 μM): 63%
- percentage inhibition (variant V354T, 0.01 μM): 0%
- percentage inhibition (variant V354T, 0.075 μM): 7%
- percentage inhibition (variant V354T, 0.5 μM): 89%
- percentage inhibition (variant W391L, 0.01 μM): 24%
- percentage inhibition (variant W391L, 0.075 μM): 10%
- percentage inhibition (variant W391L, 0.5 μM): 16%
- percentage inhibition (variant W391M, 0.01 μM): 0%
- percentage inhibition (variant W391M, 0.075 μM): 16%
- percentage inhibition (variant W391M, 0.5 μM): 30%
- percentage inhibition (variant W392C, 0.01 μM): 2%
- percentage inhibition (variant W392C, 0.075 μM): 12%
- percentage inhibition (variant W392C, 0.5 μM): 13%
- percentage inhibition (variant W392D, 0.01 μM): 19%
- percentage inhibition (variant W392D, 0.075 μM): 59%
- percentage inhibition (variant W392D, 0.5 μM): 85%
- percentage inhibition (variant W392G, 0.01 μM): 0%
- percentage inhibition (variant W392G, 0.075 μM): 2%
- percentage inhibition (variant W392G, 0.5 μM): 0%
- percentage inhibition (variant W392M, 0.01 μM): 0%
- percentage inhibition (variant W392M, 0.075 μM): 10%
- percentage inhibition (variant W392M, 0.5 μM): 8%
- percentage inhibition (variant W392S, 0.01 μM): 0%
- percentage inhibition (variant W392S, 0.075 μM): 3%
- percentage inhibition (variant W392S, 0.5 μM): 0%
- percentage inhibition (variant Y511C, 0.01 μM): 0%
- percentage inhibition (variant Y511C, 0.075 μM): 3%
- percentage inhibition (variant Y511C, 0.5 μM): 44%
- percentage inhibition (variant Y511D, 0.01 μM): 20%
- percentage inhibition (variant Y511D, 0.075 μM): 29%
- percentage inhibition (variant Y511D, 0.5 μM): 51%
- percentage inhibition (variant Y511E, 0.01 μM): 0%
- percentage inhibition (variant Y511E, 0.075 μM): 0%
- percentage inhibition (variant Y511E, 0.5 μM): 33%
- percentage inhibition (variant Y511F, 0.01 μM): 48%
- percentage inhibition (variant Y511F, 0.075 μM): 65%
- percentage inhibition (variant Y511F, 0.5 μM): 86%
- percentage inhibition (variant Y511I, 0.01 μM): 21%
- percentage inhibition (variant Y511I, 0.075 μM): 27%
- percentage inhibition (variant Y511I, 0.5 μM): 28%
- percentage inhibition (variant Y511M, 0.01 μM): 0%
- percentage inhibition (variant Y511M, 0.075 μM): 27%
- percentage inhibition (variant Y511M, 0.5 μM): 76%
- percentage inhibition (variant Y511P, 0.01 μM): 10%
- percentage inhibition (variant Y511P, 0.075 μM): 26%
- percentage inhibition (variant Y511P, 0.5 μM): 63%
- percentage inhibition (variant Y511Q, 0.01 μM): 0%
- percentage inhibition (variant Y511Q, 0.075 μM): 6%
- percentage inhibition (variant Y511Q, 0.5 μM): 28%
- percentage inhibition (variant Y511R, 0.01 μM): 15%
- percentage inhibition (variant Y511R, 0.075 μM): 7%
- percentage inhibition (variant Y511R, 0.5 μM): 34%
- percentage inhibition (variant Y511V, 0.01 μM): 0%
- percentage inhibition (variant Y511V, 0.075 μM): 5%
- percentage inhibition (variant Y511V, 0.5 μM): 49%
- percentage inhibition (variant Y511W, 0.01 μM): 11%
- percentage inhibition (variant Y511W, 0.075 μM): 22%
- percentage inhibition (variant Y511W, 0.5 μM): 50%

SMILES: CCOC(=O)c1nn(-c2ccc3c(c2)OC(F)(F)C(F)(F)O3)c2cccc(C(C)=O)c2c1=O [Compound A, ethyl 5-acetyl-4-oxo-1-(2,2,3,3-tetrafluoro-1,4-benzodioxin-6-yl)cinnoline-3-carboxylate]
- percentage inhibition (variant Q517M, 1 μM): 38%
- percentage inhibition (variant W392A, 1 μM): 53%
